Experimental data from patent publication US10112955B2, “Isoindoline, azaisoindoline, dihydroindenone and dihydroazaindenone inhibitors of Mnk1 and Mnk2” (eFFECTOR THERAPEUTICS, INC., priority 2015, dated 2018).
Where two headings read alike, the source gives them in different places.

Assays:
[1] = target: MNK2 (Homo sapiens (Human), UniProt Q9HBH9); assay: MNK Biochemical Enzymatic Assay (ADP-Glo), MNK2; settings: 3 nM recombinant MNK2, 50 μM substrate peptide, 10 μM ATP
Method: (§1) Compounds are screened for MNK inhibition using the ADP-Glo kinase assay kit (Promega, catalogue No. V9101). All kinase reactions are performed in Reaction Buffer E (15 mM HEPES pH7.4, 20 mM NaCl, 1 mM EGTA, 10 mM MgCl2, 0.1 mg/ml BGG, and 0.02% Tween-20). […] Final DMSO concentration in each reaction is 1%.
(§2) Kinase reactions are carried out in 96-well half-area white flat-bottom polystyrene plates in a final volume of 25 μl. MNK1/2 enzymes are pre-incubated with compound and peptide substrate for 5 minutes prior to the addition of ATP. After the addition of ATP, kinase reactions are incubated at room temperature for 40 minutes. Reactions are subsequently stopped by the addition of 25 μl of ADP-Glo Reagent and incubating for an additional 40 minutes. The final luminescent signal used for kinase activity readout is produced by the addition of 45 μl of Kinase Detection Reagent (ADP-Glo kit, Promega) and incubating for 40 minutes.

[2] = test system: Phosphorylated eIF4E; assay: peIF4E Signaling Cellular Assay (CisBio peIF4E HTRF); type: cell-based; settings: cells incubated with compound for 2 hrs at 37° C., 12-point curve
Method: Phosphorylated eIF4E is assayed using the CisBio peIF4E HTRF® assay kit (CisBio, catalogue No. 64EF4PEG). Cells are plated in 96-well tissue-culture treated plate in appropriate growth medium (90 μL). Compounds (10×) are diluted using 3-fold serial dilutions in cell culture medium and added to cells. Plates are incubated for 2 hrs at 37° C. The cell supernatant is carefully removed either by aspirating supernatant or by flicking the plate. Immediately 50 μL of supplemented lysis buffer (1×) is added and incubated for at least 30 minutes at room temperature under shaking. After homogenization by pipeting up and down, 16 μL of cell lysate is transferred from the 96-well cell-culture plate to a 384-well small volume white plate. 4 μL of premixed antibody solutions (vol/vol) is prepared in the detection buffer and added. The plate is covered with a plate sealer and incubated overnight at room temperature. The fluorescence emissions at two different wavelengths are read (665 nm and 620 nm) on a Wallac Victor2. Emission ratios are converted into percent inhibitions and imported into GraphPad Prism software. […] IC50 values are determined using a nonlinear regression model available in GraphPad Prism 5.

[3] = target: MNK1 (Homo sapiens (Human), UniProt Q9BUB5); assay: MNK Biochemical Enzymatic Assay (ADP-Glo), MNK1
MNK1, sequence (Q9BUB5 whole entry): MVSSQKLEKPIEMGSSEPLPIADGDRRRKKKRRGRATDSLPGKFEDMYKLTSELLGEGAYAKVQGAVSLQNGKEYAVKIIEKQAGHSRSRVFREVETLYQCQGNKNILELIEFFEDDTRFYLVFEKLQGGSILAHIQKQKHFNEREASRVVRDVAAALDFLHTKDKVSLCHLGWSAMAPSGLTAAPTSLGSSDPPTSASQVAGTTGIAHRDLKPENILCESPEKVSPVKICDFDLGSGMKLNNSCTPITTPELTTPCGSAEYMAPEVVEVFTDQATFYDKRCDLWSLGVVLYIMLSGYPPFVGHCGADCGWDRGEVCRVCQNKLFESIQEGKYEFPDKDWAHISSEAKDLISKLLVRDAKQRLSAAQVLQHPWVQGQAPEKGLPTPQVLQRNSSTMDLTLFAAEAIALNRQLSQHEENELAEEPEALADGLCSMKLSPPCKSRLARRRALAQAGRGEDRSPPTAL
Method: as §1, §2

[4] = 10 nM recombinant MNK1, 100 μM substrate peptide, 300 μM ATP, read-out: IC50 Mnk1

MNK2, sequence (Q9HBH9 whole entry): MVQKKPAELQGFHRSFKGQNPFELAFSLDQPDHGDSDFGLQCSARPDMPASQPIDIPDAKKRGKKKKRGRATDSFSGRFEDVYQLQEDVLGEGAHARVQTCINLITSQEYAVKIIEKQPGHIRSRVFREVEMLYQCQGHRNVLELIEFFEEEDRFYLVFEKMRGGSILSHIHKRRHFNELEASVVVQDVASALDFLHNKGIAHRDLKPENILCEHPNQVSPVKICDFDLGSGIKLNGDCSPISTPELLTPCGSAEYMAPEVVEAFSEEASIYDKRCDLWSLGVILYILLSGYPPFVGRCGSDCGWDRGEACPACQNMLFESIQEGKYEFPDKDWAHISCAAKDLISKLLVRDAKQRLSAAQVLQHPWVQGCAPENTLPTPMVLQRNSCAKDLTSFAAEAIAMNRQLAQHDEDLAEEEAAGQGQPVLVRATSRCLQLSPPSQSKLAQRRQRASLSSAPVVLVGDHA

Structure (SMILES)	IC50 [1] [nM]	IC50 [2] [nM]	IC50 [3, 4] [nM]	IC50 [3] [nM]
CC(=O)Nc1cc(Nc2ccc3c(c2)CNC3=O)ncn1 [Cpd. No. 11, N-(6-((1-oxoisoindolin-5-yl)amino)pyrimidin-4-yl)acetamide]	10 to 100	1000 to 100000	< 10	
CC1NC(=O)c2ccc(Nc3ccnc(NC(=O)C4CC4)c3)cc21 (stereo not drawn) [Cpd. No. 24, N-(4-((3-methyl-1-oxoisoindolin-5-yl)amino)pyridin-2-yl) cyclopropane carboxamide]	100 to 10000	50 to 1000	< 10	
CNc1cc(Nc2ccc3c(c2)C(C)NC3=O)ccn1 (stereo not drawn) [Cpd. No. 25, 3-methyl-5-((2-(methylamino)pyridin-4-yl)amino) isoindolin-1-one]	100 to 10000			
CC1(N)CNC(=O)c2ccc(Nc3ccncn3)cc21 (stereo not drawn) [Cpd. No. 32, 4-amino-4-methyl-6-(pyrimidin-4-ylamino)-3,4-dihydroisoquinolin-1(2H)-one]	100 to 10000			
Cc1cc(Nc2cc(N)ncn2)cc2c1C(=O)NC21CCCC1 [Cpd. No. 47, 6′-((6-aminopyrimidin-4-yl)amino)-4′-methylspiro[cyclopentane-1,1′-isoindolin]-3′-one]	< 10	50 to 1000		
CC(C)C1NC(=O)c2ccc(Nc3ccncn3)cc21 (stereo not drawn) [Cpd. No. 13, 3-isopropyl-5-(pyrimidin-4-ylamino)isoindolin-1-one]	10 to 100	1000 to 100000	10 to 100	
CC1NC(=O)c2ccc(Nc3cc(NC(=O)C4CC4)ncn3)cc21 (stereo not drawn) [Cpd. No. 17, N-(6-((3-methyl-1-oxoisoindolin-5-yl)amino)pyrimidin-4-yl)cyclopropanecarboxamide]	< 10	50 to 1000	< 10	
CC1(C)NC(=O)c2c(Cl)cc(Nc3ccncn3)cc21 [Cpd. No. 36, 7-chloro-3,3-dimethyl-5-(pyrimidin-4-ylamino)isoindolin-1-one]	< 10	50 to 1000	< 10	
Nc1ncnc(Nc2cc(Cl)c3c(c2)C2(CCCCC2)NC3=O)c1Cl [Cpd. No. 59, 6′-((6-amino-5-chloropyrimidin-4-yl)amino)-4′-chlorospiro[cyclohexane-1,1′-isoindolin]-3′-one]	< 10	< 50		
O=C1NCCc2cc(Nc3ccncn3)ccc21 [Cpd. No. 10, 6-(pyrimidin-4-ylamino)-3,4-dihydroisoquinolin-1(2H)-one]	10 to 100	1000 to 100000	10 to 100	
CCc1c(N)ncnc1Nc1cc(C)c2c(c1)C1(CCCCC1)NC2=O [Cpd. No. 53, 6′-((6-amino-5-ethylpyrimidin-4-yl)amino)-4′-methylspiro[cyclohexane-1,1′-isoindolin]-3′-one]	< 10	50 to 1000		
Nc1cc(Nc2cc(Cl)c3c(c2)C2(CCCCC2)NC3=O)ncn1 [Cpd. No. 48, 6′-((6-aminopyrimidin-4-yl)amino)-4′-chlorospiro[cyclohexane-1,1′-isoindolin]-3′-one]	< 10	< 50		
CC1(C)NC(=O)c2c(Cl)cc(Nc3cc(N)ncn3)cc21 [Cpd. No. 43, 5-((6-aminopyrimidin-4-yl)amino)-7-chloro-3,3-dimethylisoindolin-1-one]	< 10	< 50	< 10	
Cn1cc(Nc2cc(Nc3ccc4c(c3)CNC4=O)ncn2)cn1 [Cpd. No. 6, 5-((6-((1-methyl-1H-pyrazol-4-yl)amino)pyrimidin-4-yl)amino)isoindolin-1-one]				10 to 100
CN1Cc2cc(Nc3ncnc4[nH]cnc34)ccc2C1=O [Cpd. No. 2, 5-((9H-purin-6-yl)amino)-2-methylisoindolin-1-one]			10 to 100	
O=C1CCc2cc(Nc3ccncn3)ccc21 [Cpd. No. 5, 5-(pyrimidin-4-ylamino)-2,3-dihydro-1H-inden-1-one]			100 to 10000	
CC1NC(=O)c2ccc(Nc3ncnc4c3CC(=O)N4)cc21 (stereo not drawn) [Cpd. No. 41, 4-[(3-methyl-1-oxo-isoindolin-5-yl)amino]-5,7-dihydropyrrolo[2,3-d]pyrimidin-6-one]	100 to 10000			
CC1(C)NC(=O)c2ccc(Nc3cc(N)ncn3)c(Cl)c21 [Cpd. No. 52, 5-((6-aminopyrimidin-4-yl)amino)-4-chloro-3,3-dimethylisoindolin-1-one]	< 10	1000 to 100000		
Cc1cc(Nc2cc(N)ncn2)cc2c1C(=O)NC2(C)C [Cpd. No. 44, 5-((6-aminopyrimidin-4-yl)amino)-3,3,7-trimethylisoindolin-1-one]	< 10	50 to 1000		

Structure (SMILES)	IC50 [1] [nM]	IC50 [2] [nM]	IC50 [3, 4] [nM]	IC50 [3] [nM]
O=C1NCc2cc(Nc3ccncn3)ccc21 [Cpd. No. 3, 5-(pyrimidin-4-ylamino)isoindolin-1-one]			100 to 10000	
CCc1cncnc1Nc1cc(C)c2c(c1)C1(CCCCC1)NC2=O [Cpd. No. 56, 6′-((5-ethylpyrimidin-4-yl)amino)-4′-methylspiro[cyclohexane-1,1′-isoindolin]-3′-one]	10 to 100	50 to 1000		
NC1CC(=O)c2ccc(Nc3ccncn3)cc21 (stereo not drawn) [Cpd. No. 28, 3-amino-5-(pyrimidin-4-ylamino)-2,3-dihydro-1H-inden-1-one]	100 to 10000			
O=c1[nH]sc2cc(Nc3ccncn3)ccc12 [Cpd. No. 27, 6-(pyrimidin-4-ylamino)benzo[d]isothiazol-3(2H)-one]	100 to 10000			
O=C1NC2(CCCCC2)c2cc(Nc3ccncn3)cc(Cl)c21 [Cpd. No. 46, 4′-chloro-6′-(pyrimidin-4-ylamino)spiro[cyclohexane-1,1′-isoindolin]-3′-one]	< 10	< 50		
O=C1NCc2cc(Nc3ncnc4[nH]cnc34)ccc21 [Cpd. No. 1, 5-((9H-purin-6-yl)amino)isoindolin-1-one]			10 to 100	
CC1(N)CC(=O)c2ccc(Nc3ccncn3)cc21 (stereo not drawn) [Cpd. No. 30, 3-amino-3-methyl-5-(pyrimidin-4-ylamino)-2,3-dihydro-1H-inden-1-one]	100 to 10000			
CC1Cc2cc(Nc3ccncn3)ccc2NC1=O (stereo not drawn) [Cpd. No. 21, 3-methyl-6-(pyrimidin-4-ylamino)-3,4-dihydroquinolin-2(1H)-one]	100 to 10000			
O=C1NC(c2ccsc2)c2cc(Nc3ccncn3)ccc21 (stereo not drawn) [Cpd. No. 37, 5-(pyrimidin-4-ylamino)-3-(thiophen-3-yl)isoindolin-1-one]	< 10		< 10	
COc1cncnc1Nc1cc(C)c2c(c1)C1(CCCCC1)NC2=O [Cpd. No. 54, 6′-((5-methoxypyrimidin-4-yl)amino)-4′-methylspiro[cyclohexane-1,1′-isoindolin]-3′-one]	< 10	< 50		
CSc1cc(Nc2ccc3c(c2)C(C)NC3=O)ncn1 (stereo not drawn) [Cpd. No. 16, 3-methyl-5-((6-(methylthio)pyrimidin-4-yl)amino)isoindolin-1-one]	100 to 10000			
CC1NC(=O)c2ccc(Nc3cc(NC(=O)C(C)(C)C)ncn3)cc21 (stereo not drawn) [Cpd. No. 18, N-(6-((3-methyl-1-oxoisoindolin-5-yl)amino)pyrimidin-4-yl)pivalamide]	100 to 10000			
Cc1cc(Nc2ccc3c(c2)C(C)NC3=O)ncn1 (stereo not drawn) [Cpd. No. 26, 3-methyl-5-((6-methylpyrimidin-4-yl)amino)isoindolin-1-one]	100 to 10000			
CC1(C)NC(=O)c2c(Cl)cc(Nc3ncnc(N)c3Cl)cc21 [Cpd. No. 50, 5-((6-amino-5-chloropyrimidin-4-yl)amino)-7-chloro-3,3-dimethylisoindolin-1-one]	< 10	< 50		
NC(=O)c1ccc2c(c1)ncn2-c1cc(N)ncn1 [Cpd. No. 49, 1-(6-aminopyrimidin-4-yl)-1H-benzo[d]imidazole-5-carboxamide]	10 to 100	1000 to 100000		
O=C1NC2CC2c2cc(Nc3ccncn3)ccc21 (stereo not drawn) [Cpd. No. 29, 6-(pyrimidin-4-ylamino)-1,1a,2,7b-tetrahydro-3H-cyclopropa[c]isoquinolin-3-one]	100 to 10000	1000 to 100000		
Cc1cc(Nc2cc(N)ncn2)cc2c1C(=O)NC21CCCCC1 [Cpd. No. 51, 6′-((6-aminopyrimidin-4-yl)amino)-4′-methylspiro[cyclohexane-1,1′-isoindolin]-3′-one]	< 10	< 50		
CC1c2cc(Nc3ccncn3)ccc2C(=O)N1C (stereo not drawn) [Cpd. No. 20, 2,3-dimethyl-5-(pyrimidin-4-ylamino)isoindolin-1-one]	100 to 10000			
O=C1NCc2cc(Nc3cc(Cl)ncn3)ccc21 [Cpd. No. 4, 5-((6-chloropyrimidin-4-yl)amino)isoindolin-1-one]			100 to 10000	
